According to patent US4333934A, “Imidazoquinoxalines and pyrroloquinoxalines” (Roussel Uclaf, priority 1979, dated 1982):
Counter-ions that a name gives are not always drawn. Like-named read-outs stand apart in the source and are kept apart here.

Key:
[1] = system: Passive cutaneous anaphylaxis (PCA) in rats; test: Passive cutaneous anaphylaxis (PCA) in rats; format: in vivo, rat; conditions: for ED50: Rattus norvegicus
Source text: Cutaneous anaphylaxis was induced in groups of male rats weighing 180-220 g by intradermal (ID) sensitization with antiserum followed three days later by systemic challenge with antigen. Evans blue dye injected with the antigen was used as a marker to assess the severity of the local response. Anti-allergic drugs inhibit this reaction and this method is described by OVARY [(1962) in "Passive cutaneous Anaphylaxis in Allergology" 358-367 Ed. Brown: Pergamon Press:].
1. Wash 120 grams Al (OH)3 gel in 140 ml of saline (use of a macerater facilitates mixing).
2. Centrifuge at 3,000 r.p.m. for about 10 minutes.
3. Resuspend the precipitate with 300 ml of albumen egg powder (1.3 mg/ml) in saline and allow to stand for 30 minutes.
4. Centrifuge at 3,000 r.p.m. for 10 minutes.
5. Weigh the wet precipitate and to each gram weight, add 1 ml of saline. Store in refrigerator. (Quantity sufficient for 60 rats for a 3 day sensitization programme).
1. 1 ml of the alum precipitated ovalbumen was injected subcutaneously into 180-220 gram rats on days 0,2,4.
2. The rats were bled on day 14 either by cardiac puncture or via the dorsal abdominal aorta.
3. Equal quantities of serum from each animal were pooled and thoroughly mixed.
4. 2 ml aliquots were stored at -20° C. in plastic tubes.
The antiserum for sensitization was diluted so that an ID injection of 0.1 ml into control animals gave an average score of a single spot of between 2.0-3.5 using a 5 point scoring system (0,1,2,3,4).
Rats were anaesthetised with Nembutal (40-60 mg/kg i.p.) and were then sensitized by four ID injections (0.1 ml each) on shaved backs. The animals were then left for a period of three days to develop sensitization.
The sensitized rats were dosed orally or intraveneously with the drug immediately prior to intraveneous challenge via the superficial penile vein with 1 ml of an antigen/Evans blue mixture (1 mg albumen egg powder in 0.5 ml saline plus 0.5 ml of 1% Evans blue). The injections were speeded up by using an automatic 1 ml self-filling glass syringe. The "challenged" rats were killed after 30 minutes, (usually pithed) and their skin on the dorsal surface was removed. The degree and area of blueing, proportional to the anaphylactic reaction was assessed on a five point scoring system.
1. Total scores for sites 1,2,3 and 4=X
2. Mean value of X for each group=X

[2] = Solubility remark (footnote of Table 1); format: physicochemical; conditions: all solvents
[3] = iv, read-out: ED50 (dose of drug giving 50% inhibition), i.v., dosed immediately prior to intravenous antigen challenge, male rats
[4] = po, read-out: ED50 (dose of drug giving 50% inhibition), p.o., dosed immediately prior to intravenous antigen challenge, male rats

Compound	ED50 [1, 3]	ED50 [1, 4]	ED50 (dose of drug giving 50% inhibition), p.o. ([1]; p.o., dosed immediately prior to intravenous antigen challenge, male rats)	solubility (in words) [2]
OCc1cn2c(cnc3ccccc32)n1 [2 (as hydrochloride), Imidazo-[1,2-a]-quinoxaline-2-methanol]	0.16 mg/kg	0.068 mg/kg	–	–
c1ccc2c(c1)ncc1nc(-c3nnn[nH]3)cn12 [3 (as hydrochloride), 2-(1H-tetrazol-5-yl)-imidazo-[1,2-a]-quinoxaline]	–	0.084 mg/kg	0.089 mg/kg	–
Clc1ccc2c(Cl)cc3nc(-c4nnn[nH]4)cn3c2c1 [11 Step C]	–	–	–	extremely insoluble in all solvents
OCc1cn2c(ccc3ccccc32)n1 [Example 5, Imidazo-[1,2-a]-quinoline-2-methanol]	–	0.36 mg/kg	–	–
O=Cc1cn2c(ccc3ccccc32)n1 [Example 6, Imidazo-[1,2-a]-quinoline-2-carboxaldehyde]	–	0.09 mg/kg	–	–
c1ccc2c(c1)ccc1nc(-c3nnn[nH]3)cn12 [Example 7, 2-(1H-tetrazol-5-yl)-imidazo-[1,2-a]-quinoline]	0.026 mg/kg	0.105 mg/kg	–	–
NCc1cn2c(ccc3ccccc32)n1 [Example 8, Imidazo-[1,2-a]-quinoline-2-methanamine dihydrochloride]	0.11 mg/kg	0.98 mg/kg	–	–
COc1ccc2ccc3nc(CO)cn3c2c1 [Example 12]	0.27 mg/kg	0.24 mg/kg	–	–
COc1ccc2ccc3nc(C=O)cn3c2c1 [Example 13]	0.12 mg/kg	0.4 mg/kg	–	–
COc1ccc2ccc3nc(-c4nnn[nH]4)cn3c2c1 [Example 14, 8-methoxy-2-(1H-tetrazol-5-yl)-imidazo-[1,2-a]-quinoline]	0.01 mg/kg	0.12 mg/kg	–	–
COc1ccc2ccc3nc(CN)cn3c2c1 [Example 15]	3.39 mg/kg	–	–	–
CCn1c(=O)c2nc(CO)cn2c2ccccc21 [Example 21, 5-ethyl-2-hydroxymethyl-imidazo-[1,2-a]-quinoxaline-4-(5H)-one]	–	0.062 mg/kg	–	–
CCn1c(=O)c2nc(C=O)cn2c2ccccc21 [Example 22, 4,5-dihydro-5-ethyl-4-oxo-imidazo-[1,2-a]-quinoxaline-2-carboxaldehyde]	–	0.077 mg/kg	–	–
CCn1c(=O)c2cc(CO)cn2c2ccccc21 [Example 24, 5-ethyl-2-hydroxymethyl-pyrrolo-[1,2-a]-quinoxaline-4(5H)-one]	–	0.045 mg/kg	–	–
CCn1c(=O)c2cc(-c3nnn[nH]3)cn2c2ccccc21 [Example 26, 5-ethyl-2-(1H-tetrazol-5-yl)-pyrrolo-[1,2-a]-quinoxaline-4(5H)-one]	0.011 mg/kg	0.439 mg/kg	–	–
c1ccc2c(c1)OCc1nc(-c3nnn[nH]3)cn1-2 [Example 30, 4H-2-(1H-tetrazol-5-yl)-imidazo-[2,1-c][1,4]-benzoxazine]	0.33 mg/kg	–	–	–
